Test results taken from patent publication EP2826473A1, “NOVEL USE OF PATCHOULOL” (Chengdu Huasun Group Inc., Ltd., priority 2012, dated 2013).
Structures can show the parent of a compound that is named as a salt. Where two headings read alike, the source gives them in different places.

Tests used:
Type in all cases: cell-based
Enterococcus faecalis = experiment: in vitro bacteriostatic activity, agar dilution MIC
Enterococcus faecium = experiment: as above
[1] = tested on: Staphylococcus aureus MSSA; experiment: as above; details: Staphylococcus aureus, MSSA
[2] = tested on: Staphylococcus epidermidis ATCC 12228; experiment: in vitro bacteriostatic activity, agar dilution MIC, quality control strain; details: ATCC12228
[3] = tested on: Staphylococcus epidermidis MSSE; experiment: in vitro bacteriostatic activity, agar dilution MIC
Streptococcus pneumoniae = experiment: as above
[4] = Staphylococcus aureus MSSA 12-15
[5] = Staphylococcus aureus MSSA 12-18
[6] = Staphylococcus aureus MSSA 12-21
[7] = Enterococcus faecalis, ATCC29212, Enterococcus faecalis ATCC 29212, read-out: MIC
[8] = Enterococcus faecalis, ATCC51299, Enterococcus faecalis (high endurance) ATCC 51299, read-out: MIC
[9] = Enterococcus faecalis, Enterococcus faecalis 12-11, read-out: MIC
[10] = Enterococcus faecalis, Enterococcus faecalis 12-12, read-out: MIC
[11] = Enterococcus faecalis, Enterococcus faecalis 12-13, read-out: MIC
[12] = Enterococcus faecalis, Enterococcus faecalis 12-14, read-out: MIC
[13] = Enterococcus faecalis, Enterococcus faecalis 12-17, read-out: MIC
[14] = Enterococcus faecalis, Enterococcus faecalis 12-18, read-out: MIC
[15] = Enterococcus faecalis, Enterococcus faecalis 12-19, read-out: MIC
[16] = Enterococcus faecalis, Enterococcus faecalis 12-20, read-out: MIC
[17] = Enterococcus faecalis, Enterococcus faecalis 12-21, read-out: MIC
[18] = Enterococcus faecalis, Enterococcus faecalis 12-22, read-out: MIC
[19] = Enterococcus faecium, ATCC33186, Enterococcus faecium ATCC 33186, read-out: MIC
[20] = Enterococcus faecium, Enterococcus faecium 12-7, read-out: MIC
[21] = Enterococcus faecium, Enterococcus faecium 12-8, read-out: MIC
[22] = Enterococcus faecium, Enterococcus faecium 12-9, read-out: MIC
[23] = Enterococcus faecium, Enterococcus faecium 12-10, read-out: MIC
[24] = Enterococcus faecium, Enterococcus faecium 12-11, read-out: MIC
[25] = Enterococcus faecium, Enterococcus faecium 12-12, read-out: MIC
[26] = Enterococcus faecium, Enterococcus faecium 12-13, read-out: MIC
[27] = Enterococcus faecium, Enterococcus faecium 12-14, read-out: MIC
[28] = Enterococcus faecium, Enterococcus faecium 12-15, read-out: MIC
[29] = Enterococcus faecium, Enterococcus faecium 12-16, read-out: MIC
[30] = Staphylococcus aureus MSSA 12-11, read-out: MIC
[31] = Staphylococcus aureus MSSA 12-13, read-out: MIC
[32] = Staphylococcus aureus MSSA 12-14, read-out: MIC
[33] = Staphylococcus aureus MSSA 12-16, read-out: MIC
[34] = Staphylococcus aureus MSSA 12-17, read-out: MIC
[35] = Staphylococcus aureus MSSA 12-19, read-out: MIC
[36] = Staphylococcus aureus MSSA 12-20, read-out: MIC
[37] = Staphylococcus epidermidis, Staphylococcus epidermidis MSSE 12-12, read-out: MIC
[38] = Staphylococcus epidermidis, Staphylococcus epidermidis MSSE 12-13, read-out: MIC
[39] = Staphylococcus epidermidis, Staphylococcus epidermidis MSSE 12-14, read-out: MIC
[40] = Staphylococcus epidermidis, Staphylococcus epidermidis MSSE 12-15, read-out: MIC
[41] = Staphylococcus epidermidis, Staphylococcus epidermidis MSSE 12-16, read-out: MIC
[42] = Staphylococcus epidermidis, Staphylococcus epidermidis MSSE 12-17, read-out: MIC
[43] = Staphylococcus epidermidis, Staphylococcus epidermidis MSSE 12-18, read-out: MIC
[44] = Staphylococcus epidermidis, Staphylococcus epidermidis MSSE 12-19, read-out: MIC

Measured: MIC

CO/N=C(\C(=O)N[C@@H]1C(=O)N2C(C(=O)[O-])=C(C[N+]3(C)CCCC3)CS[C@H]12)c1csc(N)n1 [cefepime, Cefepime hydrochloride]
2 µg/mL: [1]; Staphylococcus aureus MSSA 12-14 | [1]; [4] | [1]; [5] | [1]; Staphylococcus aureus MSSA 12-19 | [1]; Staphylococcus aureus MSSA 12-20 | [3]; Staphylococcus epidermidis, Staphylococcus epidermidis MSSE 12-17 | [3]; Staphylococcus epidermidis, Staphylococcus epidermidis MSSE 12-20
4 µg/mL: Enterococcus faecalis; Enterococcus faecalis, Enterococcus faecalis 12-12 | [1]; Staphylococcus aureus MSSA 12-11 | [1]; Staphylococcus aureus MSSA 12-13 | [1]; Staphylococcus aureus MSSA 12-16 | [1]; Staphylococcus aureus MSSA 12-17 | [1]; [6]
1 µg/mL: [2]; Staphylococcus epidermidis | [3]; Staphylococcus epidermidis, Staphylococcus epidermidis MSSE 12-11 | [3]; Staphylococcus epidermidis, Staphylococcus epidermidis MSSE 12-12 | [3]; Staphylococcus epidermidis, Staphylococcus epidermidis MSSE 12-13 | [3]; Staphylococcus epidermidis, Staphylococcus epidermidis MSSE 12-18 | [3]; Staphylococcus epidermidis, Staphylococcus epidermidis MSSE 12-19
16 µg/mL: Enterococcus faecalis; Enterococcus faecalis, ATCC29212, Enterococcus faecalis ATCC 29212 | Enterococcus faecalis; Enterococcus faecalis, Enterococcus faecalis 12-18 | Enterococcus faecalis; Enterococcus faecalis, Enterococcus faecalis 12-19 | Enterococcus faecalis; Enterococcus faecalis, Enterococcus faecalis 12-20 | Enterococcus faecalis; Enterococcus faecalis, Enterococcus faecalis 12-21 | Enterococcus faecium; Enterococcus faecium, ATCC33186, Enterococcus faecium ATCC 33186 | [3]; Staphylococcus epidermidis, Staphylococcus epidermidis MSSE 12-14 | [3]; Staphylococcus epidermidis, Staphylococcus epidermidis MSSE 12-15
32 µg/mL: Enterococcus faecalis; Enterococcus faecalis, ATCC51299, Enterococcus faecalis (high endurance) ATCC 51299 | Enterococcus faecalis; Enterococcus faecalis, Enterococcus faecalis 12-17 | Enterococcus faecalis; Enterococcus faecalis, Enterococcus faecalis 12-22
>128 µg/mL: Enterococcus faecalis; Enterococcus faecalis 12-11 | Enterococcus faecalis; Enterococcus faecalis 12-13 | Enterococcus faecium; Enterococcus faecium 12-7 | Enterococcus faecium; Enterococcus faecium 12-8 | Enterococcus faecium; Enterococcus faecium 12-9 | Enterococcus faecium; Enterococcus faecium 12-10 | Enterococcus faecium; Enterococcus faecium 12-11 | Enterococcus faecium; Enterococcus faecium 12-12 | Enterococcus faecium; Enterococcus faecium 12-13 | Enterococcus faecium; Enterococcus faecium 12-14 | Enterococcus faecium; Enterococcus faecium 12-15 | Enterococcus faecium; Enterococcus faecium 12-16
8 µg/mL: Enterococcus faecalis; Enterococcus faecalis, Enterococcus faecalis 12-14
0.25 µg/mL: [3]; Staphylococcus epidermidis, Staphylococcus epidermidis MSSE 12-16

CC[C@H]1OC(=O)[C@H](C)[C@@H](O[C@H]2C[C@@](C)(OC)[C@@H](O)[C@H](C)O2)[C@H](C)[C@@H](O[C@@H]2O[C@H](C)C[C@H](N(C)C)[C@H]2O)[C@](C)(O)C[C@@H](C)CN(C)[C@H](C)[C@@H](O)[C@]1(C)O [azithromycin, Azithromycin]
> 128 µg/mL: Enterococcus faecalis; [8] | Enterococcus faecalis; [9] | Enterococcus faecalis; [11] | Enterococcus faecalis; [13] | Enterococcus faecalis; [14] | Enterococcus faecalis; [15] | Enterococcus faecalis; [16] | Enterococcus faecalis; [17] | Enterococcus faecalis; [18] | Enterococcus faecium; [20] | Enterococcus faecium; [22] | Enterococcus faecium; [23] | Enterococcus faecium; [24] | Enterococcus faecium; [25] | Enterococcus faecium; [26] | Enterococcus faecium; [27] | Enterococcus faecium; [28] | Enterococcus faecium; [29] | [1]; [30] | [1]; [32] | [1]; [33] | [1]; [34] | [1]; [35] | [1]; [36] | [3]; [38]
2 µg/mL: Enterococcus faecium; [19]
0.25 µg/mL: [1]; [31]
64 µg/mL: [3]; [41]
4 µg/mL: Enterococcus faecalis; [7] | Enterococcus faecalis; [10] | [3]; [37]
128 µg/mL: [1]; [5] | [1]; [6] | [3]; Staphylococcus epidermidis | [3]; Staphylococcus epidermidis MSSE 12-20
8 µg/mL: [3]; [39] | [3]; [40] | [3]; [42]
1 µg/mL: Enterococcus faecalis; [12] | Enterococcus faecium; [21]
16 µg/mL: [3]; [43] | [3]; [44]
0.125 µg/mL: [1]; [4] | [2]; Staphylococcus epidermidis

CC1(C)S[C@@H]2[C@H](NC(=O)Cc3ccccc3)C(=O)N2[C@H]1C(=O)O [penicillin, Benzylpenicillin sodium]
0.05 µg/mL: Streptococcus pneumoniae; Streptococcus pneumonia 12-6 | Streptococcus pneumoniae; Streptococcus pneumoniae 12-5
8 µg/mL: [3]; [39] | [3]; [40]
0.2 µg/mL: Streptococcus pneumoniae; ATCC49619, Streptococcus pneumonia ATCC 49619 | Streptococcus pneumoniae; Streptococcus pneumonia 12-10 | Streptococcus pneumoniae; Streptococcus pneumoniae 12-2
0.125 µg/mL: [1]; [34]
1 µg/mL: Enterococcus faecalis; [7] | Enterococcus faecalis; [8] | Enterococcus faecalis; [10] | Enterococcus faecalis; [12] | Enterococcus faecalis; [18]
0.06 µg/mL: [3]; [37] | [3]; [41] | [3]; [43] | [3]; [44]
0.1 µg/mL: Streptococcus pneumoniae; Streptococcus pneumonia 12-7 | Streptococcus pneumoniae; Streptococcus pneumonia 12-8 | Streptococcus pneumoniae; Streptococcus pneumonia 12-9 | Streptococcus pneumoniae; Streptococcus pneumoniae 12-1 | Streptococcus pneumoniae; Streptococcus pneumoniae 12-3
32 µg/mL: Enterococcus faecalis; [11]
0.03 µg/mL: [3]; Staphylococcus epidermidis, Staphylococcus epidermidis MSSE 12-11, read-out: MIC | [3]; [42] | [3]; Staphylococcus epidermidis, Staphylococcus epidermidis MSSE 12-20, read-out: MIC
> 128 µg/mL: Enterococcus faecalis; [9] | Enterococcus faecium; [21] | Enterococcus faecium; [23] | Enterococcus faecium; [25] | Enterococcus faecium; [26] | Enterococcus faecium; [27]
0.25 µg/mL: [1]; Staphylococcus aureus MSSA 12-15, read-out: MIC | [1]; Staphylococcus aureus MSSA 12-18, read-out: MIC | [1]; [35] | [1]; Staphylococcus aureus MSSA 12-21, read-out: MIC
128 µg/mL: Enterococcus faecium; [20] | Enterococcus faecium; [22] | Enterococcus faecium; [24] | Enterococcus faecium; [28] | Enterococcus faecium; [29]
2 µg/mL: Enterococcus faecalis; [13] | Enterococcus faecalis; [14] | Enterococcus faecalis; [15] | Enterococcus faecalis; [16] | Enterococcus faecalis; [17] | Enterococcus faecium; [19]
0.5 µg/mL: [1]; [30] | [1]; [31] | [1]; [32] | [1]; [33] | [1]; [36] | [2]; Staphylococcus epidermidis ATCC 12228, read-out: MIC | [3]; [38]
0.4 µg/mL: Streptococcus pneumoniae; Streptococcus pneumoniae 12-4
